Some results are limits rather than exact numbers.

As usually defined, the Ki is the equilibrium dissociation constant of an inhibitor or competing ligand from its target. A high value points to lower affinity.

The target in one data set is T1, Plk1 (Homo sapiens, UniProt P53350). Kind of data set: biochemical.
T1 sequence (P53350 20-338): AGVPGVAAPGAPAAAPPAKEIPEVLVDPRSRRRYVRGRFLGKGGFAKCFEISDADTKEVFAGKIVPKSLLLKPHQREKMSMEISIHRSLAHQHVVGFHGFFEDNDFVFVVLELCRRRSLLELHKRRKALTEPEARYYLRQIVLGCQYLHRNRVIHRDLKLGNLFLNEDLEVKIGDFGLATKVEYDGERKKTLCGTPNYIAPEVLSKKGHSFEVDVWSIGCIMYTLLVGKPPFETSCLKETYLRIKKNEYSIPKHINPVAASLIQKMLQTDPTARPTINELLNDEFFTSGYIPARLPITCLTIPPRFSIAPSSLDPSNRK
Settings: not given
For the molecule `COc1cc(C(=O)NC[C@H](C)O)ccc1Nc1ncc2c(n1)N(C1CCCC1)CC(C)(C)C(=O)N2C` [Compound I-270, (S)-4-(9-cyclopentyl-5,7,7-trimethyl-6-oxo-6,7,8,9-tetrahydro-5H-pyrimido[4,5-b][1,4]diazepin-2-ylamino)-N-(2-hydroxypropyl)-3-methoxybenzamide], the Ki was less than 10 nM. The molecule `COc1cc(C(=O)NC(C)(C)CO)ccc1Nc1ncc2c(n1)N(C1CCCC1)CC1(CC1)C(=O)N2C` [Compound I-271, 4-(9′-cyclopentyl-5′-methyl-6′-oxo-5′,6′,8′,9′-tetrahydrospiro[cyclopropane-1,7′-pyrimido[4,5-b][1,4]diazepine]-2′-ylamino)-N-(1-hydroxy-2-methylpropan-2-yl)-3-methoxybenzamide] registered a Ki of less than 10 nM. `COc1cc(C(=O)N[C@@H]2CCC[C@H]2O)ccc1Nc1ncc2c(n1)N(C1CCCC1)CC1(CC1)C(=O)N2C` [Compound I-272, 4-(9′-cyclopentyl-5′-methyl-6′-oxo-5′,6′,8′,9′-tetrahydrospiro[cyclopropane-1,7′-pyrimido[4,5-b][1,4]diazepine]-2′-ylamino)-N-((1R,2R)-2-hydroxycyclopentyl)-3-methoxybenzamide] had a Ki of less than 10 nM. For `COc1cc(C(=O)NCCCOC(C)=O)ccc1Nc1ncc2c(n1)N(C1CCCC1)CC(C)(C)C(=O)N2C` [Compound I-273, 3-(4-(9-cyclopentyl-5,7,7-trimethyl-6-oxo-6,7,8,9-tetrahydro-5H-pyrimido[4,5-b][1,4]diazepin-2-ylamino)-3-methoxybenzamido)propyl acetate], the Ki was less than 10 nM. `COc1cc(C(=O)NCC(O)C(F)(F)F)ccc1Nc1ncc2c(n1)N(C1CCCC1)CC(C)(C)C(=O)N2C` (stereo not drawn) [Compound I-278, 4-(9-cyclopentyl-5,7,7-trimethyl-6-oxo-6,7,8,9-tetrahydro-5H-pyrimido[4,5-b][1,4]diazepin-2-ylamino)-3-methoxy-N-(3,3,3-trifluoro-2-hydroxypropyl)benzamide] registered a Ki of less than 10 nM. The same measure, in the same setting: under `COc1cc(C(=O)NCCF)ccc1Nc1ncc2c(n1)N(C1CCCC1)CC(C)(C)C(=O)N2C` [Compound I-279, 4-(9-cyclopentyl-5,7,7-trimethyl-6-oxo-6,7,8,9-tetrahydro-5H-pyrimido[4,5-b][1,4]diazepin-2-ylamino)-N-(2-fluoroethyl)-3-methoxybenzamide] stands less than 10 nM.

Take `COc1cc(C(=O)N[C@H]2CC[C@H](OC(C)=O)CC2)ccc1Nc1ncc2c(n1)N(C1CCCC1)CC(C)(C)C(=O)N2C` [Compound I-280, (1r,4r)-4-(4-(9-cyclopentyl-5,7,7-trimethyl-6-oxo-6,7,8,9-tetrahydro-5H-pyrimido[4,5-b][1,4]diazepin-2-ylamino)-3-methoxybenzamido)cyclohexyl acetate]: the Ki is less than 10 nM. With `COc1cc(C(=O)N[C@@H]2CC[C@@H](O)C2)ccc1Nc1ncc2c(n1)N(C1CCCC1)CC1(CC1)C(=O)N2C` [Compound I-282, 4-(9′-cyclopentyl-5′-methyl-6′-oxo-5′,6′,8′,9′-tetrahydrospiro[cyclopropane-1,7′-pyrimido[4,5-b][1,4]diazepine]-2′-ylamino)-N-((1R,3R)-3-hydroxycyclopentyl)-3-methoxybenzamide], the Ki was less than 10 nM.

The next data set has as its target T1, Plk1. The data set can be described thus: Plk1 inhibition assay (radioactive-phosphate incorporation). Conditions: Plk1 radioactive incorporation assay conditions.
On to `CNC(=O)c1ccc(Nc2ncc3c(n2)N(C2CCCC2)CC(C)(C)C(=O)N3C)nc1` [Compound I-126, 6-(9-cyclopentyl-6,7,8,9-tetrahydro-5,7,7-trimethyl-6-oxo-5H-pyrimido[4,5-b][1,4]diazepin-2-ylamino)-N-methylpyridine-3-carboxamide], for which the “solubility under the Plk1 assay conditions” value is “not soluble under the assay conditions”. Still for that read-out and setting: for `CNC(=O)c1ccc(Nc2ncc3c(n2)N(C2CCCC2)CC(C)(C)C(=O)N3C)c(OC(F)(F)F)c1` [Compound I-142, 4-(9-Cyclopentyl-6,7,8,9-tetrahydro-5,7,7-trimethyl-6-oxo-5H-pyrimido[4,5-b][1,4]diazepin-2-ylamino)-N-methyl-3-(trifluoromethoxy)benzamide] the value was “not soluble under the assay conditions”.

The data set is the same for the next values; noted with them: test compound typically starting from 10 μM.
Regarding `CCOC(=O)N1CCC(Nc2ncc3c(n2)N(C2CCCC2)CCC(=O)N3C)CC1` [Compound I-13, Ethyl 4-(9-cyclopentyl-6,7,8,9-tetrahydro-5-methyl-6-oxo-5H-pyrimido[4,5-b][1,4]diazepin-2-ylamino)piperidin-1-carboxylate], the “activity in the Plk1 radioactive incorporation assay (in words)” value is recorded as “not active within the limits of the assay”. Same read-out and setting: under `COc1cc(C(=O)O)ccc1Oc1ncc2c(n1)N(C1CCCC1)CC(C)(C)C(=O)N2C` [Compound I-107, 4-(9-cyclopentyl-6,7,8,9-tetrahydro-5,7,7-trimethyl-6-oxo-5H-pyrimido[4,5-b][1,4]diazepin-2-yloxy)-3-methoxybenzoic acid] stands “not active within the limits of the assay”.

These data come from patent US8394952B2 (Vertex Pharmaceuticals Incorporated, priority 2006, dated 2013).
